In patent US20260078130A1, “NAMPT MODULATORS, PREPARATIONS, AND USES THEREOF” (SIRONAX LTD., priority 2022, published 2026):

Columns and labels:
[1] = biological target: T1, human enzyme NAMPT (full length) (Homo sapiens, UniProt P43490); assay: NMN fluorescence biochemical assay (stimulation of NMN synthesis by NAMPT); settings: for EC50: NMN fluorescence assay, purified human NAMPT 100 nM, concentration giving half-maximal activation, read-out: Enzymatic EC50; for Enzymatic Emax: fold change of maximal activation compared to DMSO
T1 construct: human enzyme NAMPT (full length)
T1 sequence (P43490 whole entry): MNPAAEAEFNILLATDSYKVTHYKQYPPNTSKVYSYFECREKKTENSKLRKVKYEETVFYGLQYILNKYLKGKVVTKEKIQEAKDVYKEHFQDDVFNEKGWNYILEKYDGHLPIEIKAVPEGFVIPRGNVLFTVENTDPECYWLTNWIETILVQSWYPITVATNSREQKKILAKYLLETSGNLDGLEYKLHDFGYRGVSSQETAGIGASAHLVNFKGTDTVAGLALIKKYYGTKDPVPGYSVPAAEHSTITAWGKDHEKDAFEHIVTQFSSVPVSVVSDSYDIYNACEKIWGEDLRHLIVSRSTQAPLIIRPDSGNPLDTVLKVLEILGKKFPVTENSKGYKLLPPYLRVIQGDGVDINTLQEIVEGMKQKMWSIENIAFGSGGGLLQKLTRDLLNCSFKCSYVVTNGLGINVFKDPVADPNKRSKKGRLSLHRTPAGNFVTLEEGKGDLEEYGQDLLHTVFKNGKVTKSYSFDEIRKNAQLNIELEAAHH
Summary of the method: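 Full-length human NAMPT (100 nM) was preincubated 15 min at 37 °C with compound in 50 mM Tris-HCl pH 7.5, 10 mM MgCl2, 2 mM DTT, then reacted 1 h at 37 °C with 50 μM NAM, 100 μM PRPP, 4 mM ATP (stated solution concentrations). NMN was derivatised with acetophenone/KOH then formic acid and read at Ex/Em 382/445 nm; EC50 and Emax (fold over DMSO) reported.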

[2] = test system: endogenous NAMPT in U2OS cells; assay: Cellular NAD+ modulation assay (NAD/NADH-Glo, U2OS cells); format: cell-based; settings: Homo sapiens, 24 hours incubation, cellular NAD+; for maximal fold induction: read-out: Cellular Emax
Summary of the method: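 NAD/NADH-Glo luminescence quantified NAD+ after acid treatment (60 °C, 15 min) and neutralization of DTAB lysates. Beforehand, U2OS cells seeded 16 h earlier received compound concentration series for 24 h at 37 °C. Values given as half-maximal activation concentration (EC50) and maximal fold change versus DMSO (Emax).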

EC50 [1] [µM]	Enzymatic Emax [1]	EC50 [2] [µM]	Compound	maximal fold induction [2]
< 0.5	C (2≥C)	0.5 to 5	CN(C)CCOc1nn(C)c(CC2c3ccccc3C(=O)N2CC2CC3(CNC(=O)O3)C2)c1Cl (stereo not shown) [Compound 523, 2-((1-((4-chloro-3-(2-(dimethylamino)ethoxy)-1-methyl-1H-pyrazol-5-yl)methyl)-3-oxoisoindolin-2-yl)methyl)-5-oxa-7-azaspiro[3.4]octan-6-one]	> 1.5
≥ 5	C (2≥C)	0.5 to 5	Cn1ncc(Cl)c1CC1c2cc(Cl)ncc2C(=O)N1CC1CC2(CNC(=O)O2)C1 (stereo not shown) [Compound 524, 2-((6-chloro-1-((4-chloro-1-methyl-1H-pyrazol-5-yl)methyl)-3-oxo-1,3-dihydro-2H-pyrrolo[3,4-c]pyridin-2-yl)methyl)-5-oxa-7-azaspiro[3.4]octan-6-one]	> 1.5
0.5 to 5	B (3≥B>2)	0.5 to 5	Cc1nc(Cl)c(CC2c3ccccc3C(=O)N2CC2CC3(CNC(=O)O3)C2)n1C (stereo not shown) [Compound 526, 2-((1-((4-chloro-1,2-dimethyl-1H-imidazol-5-yl)methyl)-3-oxoisoindolin-2-yl)methyl)-5-oxa-7-azaspiro[3.4]octan-6-one]	> 1.5
< 0.5	B (3≥B>2)	< 0.5	Cc1nn(C)c(CC2c3ccccc3C(=O)N2CC2CC3(CNC(=O)O3)C2)c1Cl (stereo not shown) [Compound 527, 2-((1-((4-chloro-1,3-dimethyl-1H-pyrazol-5-yl)methyl)-3-oxoisoindolin-2-yl)methyl)-5-oxa-7-azaspiro[3.4]octan-6-one]	> 1.5
0.5 to 5	A (A>3)	< 0.5	[2H]C1([2H])NC(=O)OC12CC(CN1C(=O)c3ccccc3C1Cc1c(Cl)cnn1C)C2 (stereo not shown) [Compound 535, 2-((1-((4-chloro-1-methyl-1H-pyrazol-5-yl)methyl)-3-oxoisoindolin-2-yl)methyl)-5-oxa-7-azaspiro[3.4]octan-6-one-8,8-d2]	> 1.5
≥ 5	C (2≥C)	0.5 to 5	O=C1NCC2(CC(CN3C(=O)c4ccccc4C3Cc3nnsc3Cl)C2)O1 (stereo not shown) [Compound 538, 2-((1-((5-chloro-1,2,3-thiadiazol-4-yl)methyl)-3-oxoisoindolin-2-yl)methyl)-5-oxa-7-azaspiro[3.4]octan-6-one]	> 1.5
≥ 5	B (3≥B>2)	0.5 to 5	Cn1ncc(Cl)c1CC1c2ccccc2C2(CC2)N1CC1CC2(CNC(=O)O2)C1 (stereo not shown) [Compound 539, 2-((3′-((4-chloro-1-methyl-1H-pyrazol-5-yl)methyl)spiro[cyclopropane-1,1′-isoindolin]-2′-yl)methyl)-5-oxa-7-azaspiro[3.4]octan-6-one]	1.2 to 1.5
< 0.5	B (3≥B>2)	< 0.5	Cn1ncc(Cl)c1CC1c2ccccc2S(=O)(=O)N1CC1CC2(CNC(=O)O2)C1 (stereo not shown) [Compound 540, 2-((3-((4-chloro-1-methyl-1H-pyrazol-5-yl)methyl)-1,1-dioxidobenzo[d]isothiazol-2(3H)-yl)methyl)-5-oxa-7-azaspiro[3.4]octan-6-one]	> 1.5
0.5 to 5	B (3≥B>2)	< 0.5	Cn1ncc(Cl)c1CC1c2cc(OC(F)F)ccc2C(=O)N1CC1CC2(CNC(=O)O2)C1 (stereo not shown) [Compound 541, 2-((3-((4-chloro-1-methyl-1H-pyrazol-5-yl)methyl)-5-(difluoromethoxy)-1-oxoisoindolin-2-yl)methyl)-5-oxa-7-azaspiro[3.4]octan-6-one]	> 1.5
≥ 5	B (3≥B>2)	0.5 to 5	CSc1ccc(CN2C(=O)c3ccccc3C2Cc2c(Cl)cnn2C)cc1 (stereo not shown) [Compound 542, 3-((4-chloro-1-methyl-1H-pyrazol-5-yl)methyl)-2-(4-(methylthio)benzyl)isoindolin-1-one]	1.2 to 1.5
